Experimental data as given in patent publication US8653075B2, “Therapeutic methods employing substituted piperidines which are CCR3 antagonists” (Boehringer Ingelheim International GmbH, priority 2009, dated 2014).

Target: T1, human chemokine receptor CCR3 (Homo sapiens, UniProt P51677)
T1 construct: expressed in transfected cells; host or cells: K562 cell line (hCCR3-C1 cells), membrane preparation
T1 sequence (P51677 1-355): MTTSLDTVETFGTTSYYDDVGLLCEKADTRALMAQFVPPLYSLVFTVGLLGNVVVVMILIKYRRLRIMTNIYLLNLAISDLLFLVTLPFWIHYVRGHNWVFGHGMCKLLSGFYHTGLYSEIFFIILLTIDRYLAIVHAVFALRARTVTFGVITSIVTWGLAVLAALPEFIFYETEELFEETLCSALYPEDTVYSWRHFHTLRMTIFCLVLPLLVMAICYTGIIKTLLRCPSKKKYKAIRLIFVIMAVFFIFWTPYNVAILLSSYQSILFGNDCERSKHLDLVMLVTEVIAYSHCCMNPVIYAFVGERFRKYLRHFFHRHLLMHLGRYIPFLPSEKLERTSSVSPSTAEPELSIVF
Assay: CCR3 receptor binding assay (SPA, 125I-eotaxin-1 displacement, hCCR3-C1 K562 cell membranes)
Conditions: human Eotaxin-1 at human CCR3-Rezeptor; for inhibition at 1 µM: 1 μM test compound, read-out: CCR3 % inh @ 1 μM; for Ki: dose range 0.1 to 10000 nM
Protocol: The CCR3 receptor binding test is based on a K562 cell line (leukemia myelogenic blast cells) transfected with the human chemokine receptor CCR3 (hCCR3-C1 cells). The cell membranes were prepared by disrupting the hCCR3-C1 cells by […]. The preparation was centrifuged at 400 g 4° C. for 30 min. The supernatant was transferred into fresh tubes followed by a second centrifugation at 48000 g, 4° C. for 1 h. The membranes were re-suspended in the SPA incubation buffer (25 mM HEPES, 25 mM MgCl2 6×H2O, 1 mM CaCl2 2×H2O) without bovine serum albumin and homogenized by passing through a single use needle (Terumo, 23Gx1″). The membranes were stored in aliquots at −80° C.
The CCR3 receptor binding assay was performed in a Scintillation Proximity Assay (SPA) design with the radioligand recombinant human ^125Iodine-eotaxin-1. Cell membranes of hCCR3 C1 cells were again homogenized by passing through a single use needle (Terumo, 23Gx1″) and diluted in SPA incubation buffer in suitable concentrations (0.5-10 μg protein/well) in 96 well microtiter plates (1450-514, Perkin Elmer). The SPA assay was set up in the SPA incubation buffer with a final volume of 200 μl and final concentration of 25 mM HEPES, 25 mM MgCl2 6×H2O, 1 mM CaCl2 2×H2O and 0.1% bovine serum albumin. The SPA assay mixture contained 60 μl of the membrane suspension, 80 μl of Wheat Germ Agglutinin coated PVT beads (organic scintillator, GE Healthcare, RPNQ-0001) 0.2 mg/well), 40 μl of recombinant human ^125Jodine-eotaxin-1 (Biotrend), diluted in SPA buffer to a final concentration of 30.000 dpm per well, and 20 μl of the test compound (dissolved in DMSO dilutions). The SPA assay mixture was incubated for 2 h at room temperature. Bound radioactivity was determined with a scintillation counter (Micro Beta “Trilux”, Wallac). Included were controls for total binding (no displacer added, Bo) and non-specific binding (NSB) by adding unlabelled recombinant human Eotaxin-1 (Biotrend, Cat #300-21) or a reference compound.
Determination of the affinity of a test compound was calculated by subtraction of the non-specific binding (NSB) from the total binding (Bo) or the binding in the presence of the test compound (B) at a given compound concentration. […] The Bo-NSB value was set to 0% inhibition.
% inhibition and Ki values are (human Eotaxin-1 at human CCR3-Rezeptor): […]

inhibition at 1 µM [%] | Ki [nM] | SMILES
98 | 20 | Cc1cc(CN2CCC(N3C(=O)CC[C@@H]3C(=O)Nc3cccc(-c4nc[nH]n4)c3)CC2)ccc1Cl [Example 16]
101 | 4 | Cc1cc(CN2CCC(N3C(=O)CC[C@@H]3C(=O)Nc3cccc(C(=O)NCC(C)C)c3)CC2)ccc1Cl [Example 137]
40 | 965 | Cc1cc(CN2CCC(N3C(=O)CC[C@H]3C(=O)NC3CCC(F)(F)CC3)CC2)ccc1Cl [Example 48]
91 | 67 | COC(=O)c1csc(NC(=O)[C@H]2CCC(=O)N2C2CCN(Cc3ccc(Cl)c(C)c3)CC2)n1 [Example 99]
46 | 791 | Cc1cc(CN2CCC(N3C(=O)CC[C@H]3C(=O)NCc3ccc(Cl)nc3C)CC2)ccc1Cl [Example 70]
60 | 518 | Cc1cc(CN2CCC(N3C(=O)CC[C@@H]3C(=O)N3Cc4ccccc4C3)CC2)ccc1Cl [Example 63]
86 | 114 | CNC(=O)c1cccc(NC(=O)[C@H]2CCC(=O)N2C2CCN(Cc3ccc(Br)cc3)CC2)c1 [Example 200]
96 | – | Cc1cc(CN2CCC(N3C(=O)CCC3C(=O)Nc3cc(-c4c(C)noc4C)ccn3)CC2)ccc1Cl (stereo not drawn) [Example 192]
99 | 4 | Cc1cc(NC(=O)[C@H]2CCC(=O)N2C2CCN(Cc3ccc(Cl)c(C)c3)CC2)cc(-c2nnnn2C)c1 [Example 114]
98 | 21 | Cc1cc(CN2CCC(N3C(=O)N(C)C[C@@H]3C(=O)Nc3cccc(-c4cscn4)c3)CC2)ccc1Cl [Example 121]
89 | 95 | Cc1cc(-c2nnnn2C)cc(NC(=O)[C@H]2CCC(=O)N2C2CCN(Cc3ccc(Cl)c(C)c3)CC2)n1 [Example 196]
98 | 15 | CCN(CCO)C(=O)c1cccc(NC(=O)[C@H]2CCC(=O)N2C2CCN(Cc3ccc(Cl)c(C)c3)CC2)c1 [Example 156]
99 | 13 | Cc1cc(CN2CCC(N3C(=O)CC[C@@H]3C(=O)Nc3cc(C(N)=O)cc(C(=O)N(C)C)c3)CC2)ccc1Cl [Example 107]
86 | 108 | COc1ccc(NC(=O)[C@H]2CCC(=O)N2C2CCN(Cc3ccc(Cl)c(C)c3)CC2)cc1C(=O)N(C)CCO [Example 178]
28 | 1750 | Cc1cc(CN2CCC(N3C(=O)CC[C@H]3C(=O)NCc3cc(C(C)C)no3)CC2)ccc1Cl [Example 52]
76 | 247 | CNC(=O)c1cccc(NC(=O)[C@H]2CCC(=O)N2C2CCN(Cc3ccc(C)c(C)c3)CC2)c1 [Example 205]
97 | 19 | Cc1cc(CN2CCC(N3C(=O)CC[C@@H]3C(=O)Nc3cc(C(=O)N4CCOCC4)ccn3)CC2)ccc1Cl [Example 160]
83 | 150 | Cc1cc(CN2CCC(N3C(=O)CC[C@@H]3C(=O)Nc3ccc(N4CCCOC4=O)c(C)c3)CC2)ccc1Cl [Example 33]
97 | 9 | CCN(C)S(=O)(=O)c1cccc(NC(=O)[C@H]2CCC(=O)N2C2CCN(Cc3ccc(Cl)c(C)c3)CC2)c1 [Example 20]
99 | 4 | Cc1cc(CN2CCC(N3C(=O)CC[C@@H]3C(=O)Nc3cc(Cl)cc(C(=O)N(C)C)c3)CC2)ccc1Cl [Example 168]
101 | 3 | Cc1cc(CN2CCC(N3C(=O)CC[C@@H]3C(=O)Nc3cccc(C(=O)NC4CCC4)c3)CC2)ccc1Cl [Example 134]

SMILES | inhibition at 1 µM [%] | Ki [nM]
Cc1cc(CN2C3CCC2CC(N2C(=O)CC[C@@H]2C(=O)Nc2cccc(-c4nnnn4C)c2)C3)ccc1Cl (stereo partly drawn) [Example 77] | 96 | 38
Cc1cc(CN2C3CCC2CC(N2C(=O)CC[C@@H]2C(=O)Nc2cc(C4CC4)nn2C)C3)ccc1Cl (stereo partly drawn) [Example 85] | 68 | 350
